Format in all cases: biochemical
The target of assay [1] is T1, noradrenaline (NA) reuptake in synaptosomes (Rattus norvegicus, UniProt Q9WTR4).
T1 construct: in synaptosomes as described in WO 97/16451; from tissue
Briefly: In vitro inhibition of NA reuptake in synaptosomes. Conditions: 3H-NA, as described in WO 97/16451, read-out: NA-uptake IC50. The method, then:
(§1) A number of compounds were tested for their ability to inhibit the reuptake of the monoamine neurotransmitters dopamine (DA), noradrenaline (NA) and serotonine (5-HT) in synaptosomes as described in WO 97/16451.
(§2) The test values are given as IC50 (the concentration (μM) of the test substance which inhibits the specific binding of ^3H-DA, ^3H-NA, or ^3H-5-HT by 50%).

Assay [2] concerns the target T2, dopamine (DA) reuptake in synaptosomes (Rattus norvegicus, UniProt P23977).
T2 construct: in synaptosomes as described in WO 97/16451; from tissue
Briefly: In vitro inhibition of DA reuptake in synaptosomes. To be noted: 3H-DA, as described in WO 97/16451, read-out: DA-uptake IC50. On the procedure:
as §1, §2

For assay [3], the target named is T3, serotonine (5-HT) reuptake in synaptosomes (Rattus norvegicus, UniProt P31652).
T3 construct: in synaptosomes as described in WO 97/16451; from tissue
The experiment in a line: In vitro inhibition of 5-HT reuptake in synaptosomes. To be noted: 3H-5-HT, as described in WO 97/16451, read-out: 5-HT-uptake IC50. The method, then:
as §1, §2

pIC50: −log10 of the molar value. Structures can show the parent of a compound that is named as a salt. Bounds are passed on as bounds.

T1 sequence (Q9WTR4 1-597): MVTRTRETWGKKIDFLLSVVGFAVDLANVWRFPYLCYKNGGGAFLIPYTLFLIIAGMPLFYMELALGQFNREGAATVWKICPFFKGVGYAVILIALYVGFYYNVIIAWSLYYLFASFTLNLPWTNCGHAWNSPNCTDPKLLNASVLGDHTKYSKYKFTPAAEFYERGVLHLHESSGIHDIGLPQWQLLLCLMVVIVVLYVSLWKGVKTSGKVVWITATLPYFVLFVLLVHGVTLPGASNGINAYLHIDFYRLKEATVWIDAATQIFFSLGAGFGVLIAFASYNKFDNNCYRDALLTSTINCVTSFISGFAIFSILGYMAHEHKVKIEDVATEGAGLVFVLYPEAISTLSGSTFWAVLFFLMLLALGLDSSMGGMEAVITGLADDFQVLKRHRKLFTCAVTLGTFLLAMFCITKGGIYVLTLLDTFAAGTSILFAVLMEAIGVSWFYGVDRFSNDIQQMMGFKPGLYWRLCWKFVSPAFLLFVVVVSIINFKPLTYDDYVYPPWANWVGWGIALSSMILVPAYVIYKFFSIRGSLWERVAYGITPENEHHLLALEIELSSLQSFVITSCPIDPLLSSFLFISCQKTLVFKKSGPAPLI
T3 sequence (P31652 whole entry): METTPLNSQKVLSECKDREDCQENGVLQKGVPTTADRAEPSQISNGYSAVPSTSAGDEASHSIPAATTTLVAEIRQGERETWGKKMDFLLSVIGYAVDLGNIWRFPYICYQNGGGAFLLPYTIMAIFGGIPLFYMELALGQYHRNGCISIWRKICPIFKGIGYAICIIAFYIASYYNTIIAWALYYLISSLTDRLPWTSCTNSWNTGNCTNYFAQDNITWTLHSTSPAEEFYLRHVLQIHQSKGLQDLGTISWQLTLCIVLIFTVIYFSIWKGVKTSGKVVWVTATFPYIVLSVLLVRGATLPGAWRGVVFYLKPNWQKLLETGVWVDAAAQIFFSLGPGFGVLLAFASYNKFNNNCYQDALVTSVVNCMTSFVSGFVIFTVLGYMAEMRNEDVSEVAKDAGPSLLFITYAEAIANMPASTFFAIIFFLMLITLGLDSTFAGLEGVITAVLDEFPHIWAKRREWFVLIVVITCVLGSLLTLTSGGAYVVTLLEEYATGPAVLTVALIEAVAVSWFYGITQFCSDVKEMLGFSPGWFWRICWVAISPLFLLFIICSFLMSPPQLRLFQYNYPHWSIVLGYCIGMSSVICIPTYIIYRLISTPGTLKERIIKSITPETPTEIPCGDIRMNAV
T2 sequence (P23977 whole entry): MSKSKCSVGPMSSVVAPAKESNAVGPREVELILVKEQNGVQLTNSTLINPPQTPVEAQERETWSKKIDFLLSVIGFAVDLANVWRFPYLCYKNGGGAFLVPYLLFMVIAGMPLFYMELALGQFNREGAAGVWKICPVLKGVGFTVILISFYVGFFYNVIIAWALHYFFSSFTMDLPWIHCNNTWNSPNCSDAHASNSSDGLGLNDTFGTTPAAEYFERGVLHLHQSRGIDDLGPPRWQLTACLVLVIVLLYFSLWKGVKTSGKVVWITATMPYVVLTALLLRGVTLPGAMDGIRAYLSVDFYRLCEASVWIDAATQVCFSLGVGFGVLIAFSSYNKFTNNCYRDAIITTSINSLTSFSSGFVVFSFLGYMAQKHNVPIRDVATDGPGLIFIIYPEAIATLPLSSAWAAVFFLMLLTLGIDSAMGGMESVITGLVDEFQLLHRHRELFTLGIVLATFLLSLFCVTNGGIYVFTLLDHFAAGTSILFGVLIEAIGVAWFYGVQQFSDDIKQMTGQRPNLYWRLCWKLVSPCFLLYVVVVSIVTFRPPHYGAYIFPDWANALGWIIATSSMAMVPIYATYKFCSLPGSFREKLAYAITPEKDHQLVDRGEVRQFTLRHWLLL

The term pIC50 denotes the negative decadic logarithm of the IC50, by convention in mol/L. Regarding `O=c1oc2cc(O[C@@H]3C[C@H]4CC[C@@H](C3)N4)ccc2cc1-c1cccc(F)c1` [6th Compound of Example 2, exo-7-[(1S,3S,5R)-(8-Aza-bicyclo[3.2.1]oct-3-yl)oxy]-3-(3-fluoro-phenyl)-chromen-2-one hydrochloric acid salt], the values for the pIC50 in assay [1], in assay [2] and in assay [3] were 7.59, 7.55 and 8.24, respectively.
The matching figures for `O=c1oc2cc(O[C@@H]3C[C@H]4CC[C@@H](C3)N4)ccc2cc1-c1ccccc1` [1st Compound of Example 2, exo-7-[(1S,3S,5R)-(8-Aza-bicyclo[3.2.1]oct-3-yl)oxy]-3-phenyl-chromen-2-one hydrochloric acid salt]: 7.72, 7.32 and 8.22.
Turning to `O=c1cc(-c2ccccc2)c2ccc(O[C@@H]3C[C@H]4CC[C@@H](C3)N4)cc2o1` [4th Compound of Example 2, exo-7-[(1S,3S,5R)-(8-Aza-bicyclo[3.2.1]oct-3-yl)oxy]-4-phenyl-chromen-2-one hydrochloric acid salt], the pIC50 was under 6.00 in assay [1], under 6.00 in assay [2] and 7.54 in assay [3].
